Data published in the supplement of paper PMC10307832.

Each cell line was assayed with CN1CCC(CC1)OC2=CC(=C(C=C2)NC3=NC=C4C(=N3)N(C(=O)N4C)C5CCCC5)OC [AZ3146] + C[C@@H](Oc1cc(-c2cnn(C3CCNCC3)c2)cnc1N)c1c(Cl)ccc(F)c1Cl [Crizotinib] (partner 1 µM) (assay: relative viability (nuclei count vs DMSO), 5 days (fraction); higher = more cells survive). Details: first compound 0.08 µM.
Summary of the method: (§1)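 Nuclei were stained with Hoechst during a one-step fixation (final 0.05% Triton X-100, 1% formaldehyde, 1 ug/ml Hoechst) carried out 5 days after dosing, then counted on 4× images. The cells, lung cancer lines in 1536-well plates, had been dosed by pin tool the day after seeding with one drug alone or a fixed anchor-drug dose plus five library-drug doses (not always all listed) in √10 steps. Relative viability is the nuclei count in treated wells divided by that in vehicle wells, and each value is the median of duplicate plates.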

Cell Line	relative viability
NCI-H1651	0.671
NCI-H2009	0.978
NCI-H727	0.813
SW 1573	0.758

Same assay, conditions: first compound 0.253 µM

Cell Line	relative viability
NCI-H1651	0.811
NCI-H2009	1.12
NCI-H727	0.796
SW 1573	0.843

Same assay, conditions: first compound 0.8 µM

Cell Line	relative viability
NCI-H1651	0.912
NCI-H2009	1.04
NCI-H727	0.8
SW 1573	0.892

Same assay, conditions: first compound 2.53 µM

Cell Line	relative viability
NCI-H1651	0.844
NCI-H2009	0.87
NCI-H727	0.586
SW 1573	0.891

Same assay, conditions: first compound 8 µM

Cell Line	relative viability
NCI-H1651	0.871
NCI-H2009	0.885
NCI-H727	0.365
SW 1573	0.531

The cell lines below were run with CCOC(=O)CCNc1cc(N2CCc3ccccc3CC2)nc(-c2ccccn2)n1 [GSK-J4] + CC(C)C[C@H](NC(=O)[C@H](Cc1ccccc1)NC(=O)c1cnccn1)B(O)O [Bortezomib] (partner 0.002 µM) in the same assay as above. Details: first compound 0.5 µM.
Summary of the method: as §1

Cell Line	relative viability
NCI-H1651	0.893
NCI-H2009	0.837
NCI-H727	0.934
SW 1573	0.872

Same assay, conditions: first compound 1.581 µM

Cell Line	relative viability
NCI-H1651	0.842
NCI-H2009	0.329
SW 1573	0.724

Same assay, conditions: first compound 5 µM

Cell Line	relative viability
NCI-H1651	0.893
NCI-H2009	0.58
NCI-H727	1.19
SW 1573	1.08

Same assay, conditions: first compound 15.81 µM

Cell Line	relative viability
NCI-H1651	0.901
NCI-H2009	0.962
NCI-H727	0.954
SW 1573	1.07

Same assay, conditions: first compound 50 µM

Cell Line	relative viability
NCI-H1651	0.884
NCI-H2009	0.398
NCI-H727	0.35
SW 1573	0.898

What follows are cell lines tested with CCOC(=O)CCNc1cc(N2CCc3ccccc3CC2)nc(-c2ccccn2)n1 [GSK-J4] + CC(=O)Nc1cccc(-n2c(=O)n(C3CC3)c(=O)c3c(Nc4ccc(I)cc4F)n(C)c(=O)c(C)c32)c1 [Trametinib] (partner 0.02 µM) in the same assay as above. Details: first compound 0.5 µM.
Summary of the method: as §1

Cell Line	relative viability
NCI-H1651	0.761
NCI-H2009	0.262
NCI-H727	0.405
SW 1573	0.577

Same assay, conditions: first compound 1.581 µM

Cell Line	relative viability
NCI-H1651	0.785
NCI-H2009	0.266
NCI-H727	0.393
SW 1573	0.474

Same assay, conditions: first compound 5 µM

Cell Line	relative viability
NCI-H1651	0.898
NCI-H2009	0.195
NCI-H727	0.378
SW 1573	0.651

Same assay, conditions: first compound 15.81 µM

Cell Line	relative viability
NCI-H1651	0.79
NCI-H2009	0.252
NCI-H727	0.385
SW 1573	0.599

Same assay, conditions: first compound 50 µM

Cell Line	relative viability
NCI-H1651	0.772
NCI-H2009	0.199
NCI-H727	0.331
SW 1573	0.381

Each cell line was assayed with CCOC(=O)CCNc1cc(N2CCc3ccccc3CC2)nc(-c2ccccn2)n1 [GSK-J4] + Nc1ncn([C@H]2C[C@H](O)[C@@H](CO)O2)c(=O)n1 [Decitabine] (partner 2 µM) in the same assay as above. Details: first compound 0.5 µM.
Summary of the method: as §1

Cell Line	relative viability
NCI-H1651	0.599
NCI-H2009	0.348
NCI-H727	0.856
SW 1573	0.592

Same assay, conditions: first compound 1.581 µM

Cell Line	relative viability
NCI-H1651	0.622
NCI-H2009	0.358
NCI-H727	0.753
SW 1573	0.645

Same assay, conditions: first compound 5 µM

Cell Line	relative viability
NCI-H1651	0.599
NCI-H2009	0.313
NCI-H727	0.904
SW 1573	0.436

Same assay, conditions: first compound 15.81 µM

Cell Line	relative viability
NCI-H1651	0.537
NCI-H2009	0.319
NCI-H727	0.87
SW 1573	0.442

Same assay, conditions: first compound 50 µM

Cell Line	relative viability
NCI-H1651	0.508
NCI-H2009	0.297
NCI-H727	0.611
SW 1573	0.204
